Results reported in patent publication US20220101973A1, “PERSONALIZED TREATMENT TOOL” (Roche Diabetes Care, Inc., priority 2018, published 2022).
Entries after “also recorded” stand apart in the source; their conditions may differ. Where two headings read alike, the source gives them in different places.

Key:
[1] = test system: type 2 diabetes patients; test: Hyperglycemia Efficacy Index (HEI) of diabetes drugs, from review of phase III trials with 7- or 8-point SMBG; assay type: in vivo, human; conditions: median ratio of effect on FBG vs effect on PPG; drugs from the same class have the same HEI
Description: Such results can be e.g. assessed via scientific publications or regulatory documents which disclose the results for the trials. Suitable scientific publications describing such trials for individual drugs can be, e.g., identified via PubMed. In an embodiment, the trials have assessed large cohorts of diabetes patients such as type 2 diabetes patients and report 7- or 8 point self-monitoring blood glucose data with determinations carried out in the fasting state, in the pre-prandial state and in the post-prandial state. In an embodiment, the trials include only type 2 diabetes patients without major comorbidities.
For establishing the database, the published information on the effects under (d1), (d2), and the risk under (d4) shall be taken into account. The indices under (d3), can be determined based on the published information for the analyzed trials.
In an embodiment, the Hyperglycemia Efficacy Index (HEI) for a drug is the ratio of the effect of said drug on fasting glucose to the effect of said drug on post-prandial glucose (i.e. the effect under (d1) and the effect under (d2)).

[2] = test system: type 2 diabetes patients; conditions: cited from earlier work

CCOc1cc(CC(=O)N[C@@H](CC(C)C)c2ccccc2N2CCCCC2)ccc1C(=O)O [Repaglinide]
Hyperglycemia Efficacy Index (HEI) [1]: HEI 0.62
Hypo Risk Index (HRI) ([2]; 1.5-12 mg): HRI 2 - medium

CCCCCCCCCCCCCCCC(=O)N[C@@H](CCC(=O)NCCCC[C@H](NC(=O)[C@H](C)NC(=O)[C@H](C)NC(=O)[C@H](CCC(N)=O)NC(=O)CNC(=O)[C@H](CCC(=O)O)NC(=O)[C@H](CC(C)C)NC(=O)[C@H](Cc1ccc(O)cc1)NC(=O)[C@H](CO)NC(=O)[C@H](CO)NC(=O)[C@@H](NC(=O)[C@H](CC(=O)O)NC(=O)[C@H](CO)NC(=O)[C@@H](NC(=O)[C@H](Cc1ccccc1)NC(=O)[C@@H](NC(=O)CNC(=O)[C@H](CCC(=O)O)NC(=O)[C@H](C)NC(=O)[C@@H](N)Cc1cnc[nH]1)[C@@H](C)O)[C@@H](C)O)C(C)C)C(=O)N[C@@H](CCC(=O)O)C(=O)N[C@@H](Cc1ccccc1)C(=O)N[C@H](C(=O)N[C@@H](C)C(=O)N[C@@H](Cc1c[nH]c2ccccc12)C(=O)N[C@@H](CC(C)C)C(=O)N[C@H](C(=O)N[C@@H](CCCNC(=N)N)C(=O)NCC(=O)N[C@@H](CCCNC(=N)N)C(=O)NCC(=O)O)C(C)C)[C@@H](C)CC)C(=O)O [Liraglutide]
Hypo Risk Index (HRI) ([2]; 1.2 mg): HRI 1 - low
Hypo Risk Index (HRI) ([2]; 1.8 mg): HRI 1 - low

CCC1=C(C)CN(C(=O)NCCc2ccc(S(=O)(=O)NC(=O)N[C@H]3CC[C@H](C)CC3)cc2)C1=O [Glimepiride]
Hypo Risk Index (HRI) ([2]; 1-8 mg): HRI 2 - moderate; also recorded: HRI 2 - medium

Dulaglutide
Hypo Risk Index (HRI) ([2]; 0.75 mg): HRI 1 - low
Hypo Risk Index (HRI) ([2]; 1.5 mg): HRI 1 - low

OC[C@H]1O[C@@H](c2ccc(Cl)c(Cc3ccc(O[C@H]4CCOC4)cc3)c2)[C@H](O)[C@@H](O)[C@@H]1O [Empagliflozin]
Hyperglycemia Efficacy Index (HEI) [1]: HEI 0.56
Hypo Risk Index (HRI) ([2]; 10 mg): HRI 1 - low
Hypo Risk Index (HRI) ([2]; 25 mg): HRI 1 - low

Exenatide LAR
Hyperglycemia Efficacy Index (HEI) [1]: HEI 0.76
Hypo Risk Index (HRI) ([2]; 2 mg): HRI 1 - low

CCOc1ccc(Cc2cc([C@@H]3O[C@H](CO)[C@@H](O)[C@H](O)[C@H]3O)ccc2Cl)cc1 [Dapagliflozin]
Hypo Risk Index (HRI) ([2]; 10 mg): HRI 1 - low

CN(C)C(=N)N=C(N)N [Metformin]
Hyperglycemia Efficacy Index (HEI) [1]: HEI 0.59
Hypo Risk Index (HRI) ([2]; ≥1000 mg): HRI 1 - low

Cc1ccc(S(=O)(=O)NC(=O)NN2CC3CCCC3C2)cc1 (stereo not drawn) [Gliclazide]
Hypo Risk Index (HRI) ([2]; 80-320 mg): HRI 2 - moderate; also recorded: HRI 2 - medium

Cc1ccc([C@@H]2O[C@H](CO)[C@@H](O)[C@H](O)[C@H]2O)cc1Cc1ccc(-c2ccc(F)cc2)s1 [Canagliflozin]
Hypo Risk Index (HRI) ([2]; 100 mg): HRI 1 - low
Hypo Risk Index (HRI) ([2]; 300 mg): HRI 1 - low

C[C@H]1O[C@H](O[C@H]2[C@H](O)[C@@H](O)[C@@H](O[C@H]3[C@H](O)[C@@H](O)C(O)O[C@@H]3CO)O[C@@H]2CO)[C@H](O)[C@@H](O)[C@@H]1N[C@H]1C=C(CO)[C@@H](O)[C@H](O)[C@H]1O (stereo partly drawn) [Acarbose]
Hyperglycemia Efficacy Index (HEI) [1]: HEI 0.54
Hypo Risk Index (HRI) ([2]; 30 mg): HRI 1 - low
Hypo Risk Index (HRI) ([2]; 300 mg): HRI 1 - low
